Data as given in BindingDB's records for doi:10.1111/j.1747-0285.2012.01416.x (University of California San Diego, 2012).

Target: Cruzipain (Trypanosoma cruzi, UniProt P25779)
Assay: Enzymatic Assay
Source text: Enzymatic inhibition using cruzain.

Chain of Cruzipain (P25779 whole entry): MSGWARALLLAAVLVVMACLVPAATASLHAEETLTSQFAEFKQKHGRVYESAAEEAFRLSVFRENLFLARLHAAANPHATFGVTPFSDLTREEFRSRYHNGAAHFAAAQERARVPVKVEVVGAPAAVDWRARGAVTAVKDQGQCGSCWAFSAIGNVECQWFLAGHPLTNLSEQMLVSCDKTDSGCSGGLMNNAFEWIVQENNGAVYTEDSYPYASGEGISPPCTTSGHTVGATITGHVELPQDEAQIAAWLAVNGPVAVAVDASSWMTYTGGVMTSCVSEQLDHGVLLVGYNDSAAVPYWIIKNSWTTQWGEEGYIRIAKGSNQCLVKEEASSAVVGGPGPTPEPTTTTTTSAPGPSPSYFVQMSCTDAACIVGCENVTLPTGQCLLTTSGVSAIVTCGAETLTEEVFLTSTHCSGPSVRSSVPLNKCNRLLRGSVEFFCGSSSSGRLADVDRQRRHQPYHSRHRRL

**Q.** Which IC50 does the source give for `Cn1ccc(=Nc2ccc(NC(=O)c3ccc(N=c4ccn(C)c5ccc([N+](=O)[O-])cc45)cc3)cc2)cc1` [4-[(1-methyl-6-nitro-quinolin-4-ylidene)amino]-N-[4-[(1-methylpyridin-4-ylidene)amino]phenyl]benzamide] here?
**A.** The IC50 was 63 µM.

**Q.** With `CO[C@H]1[C@@H](OC(=O)c2ccc(C)[nH]2)[C@@H](O)C(Oc2ccc3c(O)c(NC(=O)c4ccc(O)c(CC=C(C)C)c4)c(=O)oc3c2Cl)OC1(C)C` (some centres not stated) [NSC227186] as the compound, how does the IC50 read?
**A.** Its IC50 is 16 µM.
